Laboratory results published in the supplement of paper PMC5579334.

Assays:
S1507-2 [1] = assay: relative IC50 (inflection point of fitted dose-response curve, CellTox-Green cytotoxicity, 72 h; top asymptote may be below 50%); higher = less potent
Procedure, shortened: (§1)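 MPNST cell lines and primary human Schwann cells were grown for 72 h at 37 °C in 384-well plates containing five 10-fold compound dilutions. CellTox-Green, added before seeding at a final 1:1000 dilution, gave fluorescence from DNA released by disrupted cells, and signals were scaled to vehicle and positive-control wells. Curves were fitted with a four-parameter logistic model. Drug sensitivity score and relative IC50 come from these fits, with IC50 censored at the top concentration.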

ST8814 [2] = assay: as above
Procedure, shortened: as §1

STS26T [3] = assay: as above
Procedure, shortened: as §1

HSC1 [4] = assay: as above
Procedure, shortened: as §1

HSC2 [5] = assay: as above
Procedure, shortened: as §1

S1507-2 [6] = assay: relative IC50 (inflection point of fitted dose-response curve, CellTiter-Glo viability, 72 h; top asymptote may be below 50% inhibition); higher = less potent
Procedure, shortened: (§2)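 For this screen, 384-well plates were preprinted with each compound at five concentrations in 10-fold steps and seeded with MPNST cell lines or primary human Schwann cells at 750–1000 cells per well. Incubation lasted 72 h at 37 °C, 5% CO2, and CellTiter-Glo ATP luminescence, scaled between vehicle and positive-control wells and averaged over duplicates where available, served as viability. Logistic fits with four parameters were applied. Relative IC50 (censored at the top concentration) and drug sensitivity score derive from these fits, and percent inhibition is at the top concentration.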

HS-Sch-2 = assay: as above
Procedure, shortened: as §2

ST8814 [7] = assay: as above
Procedure, shortened: as §2

YST-1 = assay: as above
Procedure, shortened: as §2

S462 = assay: as above
Procedure, shortened: as §2

STS26T [8] = assay: as above
Procedure, shortened: as §2

HSC1 [9] = assay: as above
Procedure, shortened: as §2

HS-PSS [10] = assay: as above
Procedure, shortened: as §2

HSC2 [11] = assay: as above
Procedure, shortened: as §2

HS-PSS [12] = assay: relative IC50 (inflection point of fitted dose-response curve, CellTox-Green cytotoxicity, 72 h; top asymptote may be below 50%); higher = less potent
Procedure, shortened: as §1

Row | SMILES | relative IC50 (S1507-2 [1]) [nM] | relative IC50 (ST8814 [2]) [nM] | relative IC50 (STS26T [3]) [nM] | relative IC50 (HSC1 [4]) [nM] | relative IC50 (HSC2 [5]) [nM] | relative IC50 (S1507-2 [6]) [nM] | relative IC50 (HS-Sch-2) [nM] | relative IC50 (ST8814 [7]) [nM] | relative IC50 (YST-1) [nM] | relative IC50 (S462) [nM] | relative IC50 (STS26T [8]) [nM] | relative IC50 (HSC1 [9]) [nM] | relative IC50 (HS-PSS [10]) [nM] | relative IC50 (HSC2 [11]) [nM] | relative IC50 (HS-PSS [12]) [µM]
1 | COc1ccc(-c2cc3c(C)nc(N)nc3n([C@H]3CC[C@H](OCCO)CC3)c2=O)cn1 | 1630 | 1520 | 350 | 501 | 2710 | 89 | 476 | 209 | 57.8 | 196 | 124 | 197 | 404 | 270 | 
2 | C[C@@]1(C(=O)Nc2ccc(F)nc2)CCCN1c1nc(Nc2cc(C3CC3)n[nH]2)c2cccn2n1 | 1650 | 312 | 279 | 2360 | 1400 | 495 | 1150 | 534 | 18.2 | 307 | 663 | 441 | 1650 | 308 | 3.33
3 | Nc1ncnc2c1nc(N)n2[C@@H]1O[C@H](CO)[C@@H](O)[C@H]1O [8-amino-adenosine] | 2820 | 1730 | 1060 | 6650 | 7010 | 885 | 1230 | 1110 | 647 | 1080 | 1100 | 1360 | 1620 | 2250 | 4.13
4 | COc1ccc(S(=O)(=O)Nc2cccnc2Nc2ccc(O)cc2)cc1 [ABT-751] | 355 | 536 | 246 | 831 | 304 | 325 | 437 | 353 | 814 | 351 | 367 | 468 | 3010 | 476 | > 10
5 | O=C(Nc1c[nH]nc1-c1nc2ccc(CN3CCOCC3)cc2[nH]1)NC1CC1 [AT9283] | 167 | 31.9 | 145 | 231 | 276 | 94.6 | 332 | 60.2 | 139 | 122 | 172 | 83.1 | 178 | 79.6 | > 1
6 | CNC(=O)c1cccc(-c2ccc3c(N4CCOC[C@@H]4C)nc(N4CCOC[C@@H]4C)nc3n2)c1 [AZD2014] | > 10000 | > 10000 | > 10000 | > 10000 | > 10000 | 335 | 366 | 654 | 119 | 364 | 401 | 306 | 505 | 322 | > 10
7 | NC(=O)Nc1cc(-c2cccc(F)c2)sc1C(=O)N[C@H]1CCCNC1 [AZD7762] | 57.1 | 243 | 135 | 313 | 266 | 63.1 | 67 | 149 | 313 | 54.7 | 139 | 161 | 207 | 310 | 
8 | Oc1ncnc2[nH]ncc12 [Allopurinol] | > 10000 | > 10000 | > 10000 | > 10000 | > 10000 | > 10000 | > 10000 | > 10000 | > 10000 | > 10000 | > 10000 | > 10000 | > 10000 | > 10000 | > 10
9 | CO[C@H]1/C=C\C=C(/C)C(=O)NC2=CC(=O)C(NCCN(C)C)=C(C[C@@H](C)C[C@H](OC)[C@H](O)[C@@H](C)/C=C(\C)[C@@H]1OC(N)=O)C2=O [Alvespimycin] | 106 | 106 | 95.7 | 198 | 187 | 78.4 | 47.3 | 54.9 | 24.4 | 48.1 | 72 | 132 | 45.5 | 134 | 0.049
10 | CC[C@@H]1C(=O)N(C)c2cnc(Nc3ccc(C(=O)NC4CCN(C)CC4)cc3OC)nc2N1C1CCCC1 [BI 2536] | 10.6 | 4.57 | 2.27 | 22.3 | 21.5 | 11.9 | 3.28 | 9.3 | 3.54 | 4.92 | 3.49 | 27.1 | 7.64 | 22.6 | 
11 | Cn1c(CCCC(=O)O)nc2cc(N(CCCl)CCCl)ccc21 [Bendamustine] | > 10000 | > 10000 | > 10000 | > 10000 | > 10000 | > 10000 | > 10000 | > 10000 |  | > 10000 | > 10000 | > 10000 | > 10000 | > 10000 | > 10
12 | Cn1c(=O)n(-c2ccc(C(C)(C)C#N)cc2)c2c3cc(-c4cnc5ccccc5c4)ccc3ncc21 [Dactolisib] | > 1000 | > 1000 | > 1000 | > 1000 | > 1000 | 11 | 12.1 | 15.3 | 11.9 | 14.8 | 7.77 | 8.56 | 15.7 | 8.32 | 
13 | CC(=O)O[C@@]12CO[C@@H]1C[C@H](O)[C@@]1(C)C(=O)[C@H](O)C3=C(C)[C@@H](OC(=O)[C@H](O)[C@@H](NC(=O)OC(C)(C)C)c4ccccc4)C[C@@](O)([C@@H](OC(=O)c4ccccc4)[C@H]21)C3(C)C [Docetaxel] | 6.13 | 4.62 | 1.15 | 6.11 | 8.43 | 8.6 | 2.11 | 3.95 | 1.02 | 0.759 | 1.07 | 3.08 | 3.86 | 4.15 | 
14 | Cc1cc(Nc2cc(CN3CCOCC3)c3nc(C)c(Cc4ccc(Cl)cc4F)n3n2)n[nH]1 [Gandotinib] | 2400 | 2770 | 1700 | 1990 | 2250 | 1200 | 1550 | 1730 | 1170 | 862 | 718 | 1270 | 1000 | 1090 | 
15 | C=CCn1c(=O)c2cnc(Nc3ccc(N4CCN(C)CC4)cc3)nc2n1-c1cccc(C(C)(C)O)n1 [MK1775] | 196 | 375 | 167 | 1210 | 1510 | 231 | 84.1 | 264 | 326 | 111 | 361 | 224 | 547 | 225 | 
16 | COC(=O)C[C@](O)(CCCC(C)(C)O)C(=O)O[C@@H]1C(OC)=C[C@]23CCCN2CCc2cc4c(cc2[C@H]13)OCO4 [Omacetaxine] | 524 | 489 | 130 | 1090 | 589 | 66.1 | 67.5 | 46.5 | 9.94 | 23.8 | 41.6 | 51.7 | 47 | 50.8 | 
17 | OC[C@H]1O[C@@H](n2cnc3c2N=CNC[C@H]3O)C[C@@H]1O [Pentostatin] | > 10000 | > 10000 | > 10000 | > 10000 | > 10000 | > 10000 | > 10000 | > 10000 |  | > 10000 | > 10000 | > 10000 | > 10000 | > 10000 | > 10
18 | Cn1c(Nc2ccc(C(F)(F)F)cc2)nc2cc(Oc3ccnc(-c4ncc(C(F)(F)F)[nH]4)c3)ccc21 [RAF265] | > 1000 | > 1000 | > 1000 | > 1000 | > 1000 | 136 |  | 107 | 131 | 111 | 137 | 49.6 | 177 | 20.6 | > 1
19 | CNC(=O)c1cc(Oc2ccc(NC(=O)Nc3ccc(Cl)c(C(F)(F)F)c3)cc2)ccn1 [Sorafenib] | > 1000 | > 1000 | > 1000 | > 1000 | > 1000 | > 1000 | > 1000 | > 1000 |  | > 1000 | > 1000 | > 1000 | > 1000 | > 1000 | > 1
20 | CC(=O)Nc1ccc(C(=O)Nc2ccccc2N)cc1 [Tacedinaline] | > 1000 | > 1000 | > 1000 | > 1000 | > 1000 | > 1000 | > 1000 | > 1000 | > 1000 | > 1000 | > 1000 | > 1000 | > 1000 | > 1000 | 
21 | S=P(N1CC1)(N1CC1)N1CC1 [Thio-TEPA] | > 50000 | > 50000 | > 50000 | > 50000 | > 50000 | > 50000 |  | > 50000 | > 50000 | > 50000 | > 50000 | > 50000 | > 50000 | > 50000 | > 50
22 | O=C1NC(=O)[C@@H](c2cn3c4c(cccc24)CCC3)[C@@H]1c1c[nH]c2ccccc12 [Tivantinib] | 253 | 328 | 210 | 240 | 243 | 254 | 231 | 330 | 190 | 340 | 239 | 276 | 239 | 251 | 
23 | CC[C@]1(O)C[C@@H]2CN(CCc3c([nH]c4ccccc34)[C@@](C(=O)OC)(c3cc4c(cc3OC)N(C)[C@H]3[C@@](O)(C(=O)OC)[C@H](OC(C)=O)[C@]5(CC)C=CCN6CC[C@]43[C@@H]65)C2)C1 [Vinblastine] | 4.53 | 2.83 | 2.01 | 31.9 | 13.7 | 5.3 | 2.21 | 2.98 | 3.76 | 3.13 | 2.86 | 6.83 | 10.9 | 5.82 | 
24 | CC[C@]1(O)C[C@H]2CN(CCc3c([nH]c4ccccc34)[C@@](C(=O)OC)(c3cc4c(cc3OC)N(C=O)[C@H]3[C@@](O)(C(=O)OC)[C@H](OC(C)=O)[C@]5(CC)C=CCN6CC[C@]43[C@@H]65)C2)C1 [Vincristine] | 8.92 | 6.85 | 1.13 | 62.2 | 44.7 | 6.45 | 2.19 | 6.95 | 2.18 | 3.42 | 1.76 | 10.3 | 9.51 | 11 | 
25 | CCC1=C[C@@H]2CN(C1)Cc1c([nH]c3ccccc13)[C@@](C(=O)OC)(c1cc3c(cc1OC)N(C)[C@H]1[C@@](O)(C(=O)OC)[C@H](OC(C)=O)[C@]4(CC)C=CCN5CC[C@]31[C@@H]54)C2 [Vinorelbine] | 129 | 212 | 15.3 | 484 | 647 | 109 | 4.21 | 140 | 3 | 34 | 22.5 | 153 | 21.4 | 95.7 | 
